Converted amounts (≈) assume the structure as drawn. Like-named read-outs stand apart in the source and are kept apart here.
What was measured:
[1] = tested on: L560 E. faecalis VanA; test: MIC, broth microdilution (CLSI); type: cell-based, Enterococcus faecalis; conditions: Enterococcus faecalis, L560 E. faecalis VanA
Method: (§1) Inocula are: 2-5×10^5 CFU/mL for Gram positive and Gram negative bacteria; 10^4 CFU/mL for Candida albicans.
(§2) The effect of 30% bovine serum is determined under the same experimental conditions.
(§3) Cultures are incubated at 35° C. in air. After 18-24 hours visual readings are performed and MICs determined. The MIC (Minimal Inhibitory Concentration) is defined as the lower concentration of antibiotic at which there is no visible growth. The strains used are clinical isolates or strains from American Type Culture Collection (ATCC).

[2] = tested on: L569 E. faecium VanA; test: MIC, broth microdilution (CLSI); type: cell-based, Enterococcus faecium; conditions: Enterococcus faecium, L569 E. faecium VanA
Method: as §1, §2, §3

[3] = tested on: L819 S. aureus Smith ATCC19636; test: MIC, broth microdilution (CLSI); type: cell-based, Staphylococcus aureus; conditions: Staphylococcus aureus
Method: as §1, §2, §3

[4] = tested on: L2048 B. cenocepacia; test: MIC, broth microdilution (CLSI); type: cell-based; conditions: Burkholderia cenocepacia
Method: (§4) Antimicrobial activity of the antibiotic FIIRV 104/18 complex is determined by the broth microdilution method according to the procedures published by the Clinical and Laboratory Standards Institute (CLSI), formerly the National Committee for Clinical Laboratory Standards (NCCLS) (document M07-A9). Inocula are: 2-5×10^5 CFU/mL for Gram positive and Gram negative bacteria; 10^4 CFU/mL for Candida albicans.
(§5) The media used are: cation adjusted Mueller Hinton broth (CAMHB) for Staphylococci, Enterococci, Moraxella catarrhalis, Escherichia coli; Todd Hewitt broth (THB) for Streptococci; RPMI 1640 Medium for C. albicans. The effect of 30% bovine serum is determined under the same experimental conditions.
(§6) Cultures are incubated at 35° C. in air. After 18-24 hours visual readings are performed and MICs determined. The MIC (Minimal Inhibitory Concentration) is defined as the lower concentration of antibiotic at which there is no visible growth. The strains used are clinical isolates or strains from American Type Culture Collection (ATCC). Individual factors of antibiotic FIIRV 104/18 are dissolved in DMSO to obtain a 1000 μg/mL stock solution, and subsequently diluted in water to obtain working solution.

[5] = tested on: Gram-positive susceptible, resistant and multi-resistant pathogenic bacteria; test: Growth inhibition of Gram-positive bacteria (summary); type: cell-based; conditions: Gram positive bacteria: Staphylococci incl. MRSA and MR coagulase-negative, Streptococci, Enterococci incl. VanA
Method: as §4, §5, §6

[6] = tested on: L568 E. faecium; test: MIC, broth microdilution (CLSI); type: cell-based; conditions: Enterococcus faecium
Method: as §1, §2, §3

[7] = tested on: L49 S. pyogenes C203; test: MIC, broth microdilution (CLSI); type: cell-based; conditions: Streptococcus pyogenes
Method: as §1, §2, §3

[8] = tested on: L1400 S. aureus MRSA; test: MIC, broth microdilution (CLSI); type: cell-based; conditions: Staphylococcus aureus
Method: as §1, §2, §3

[9] = tested on: L47 E. coli, SKF 12140; test: MIC, broth microdilution (CLSI); type: cell-based; conditions: Escherichia coli
Method: as §1, §2, §3

[10] = tested on: L1730 S. haemolyticus; test: MIC, broth microdilution (CLSI); type: cell-based; conditions: Staphylococcus haemolyticus
Method: as §1, §2, §3

[11] = tested on: L1729 S. haemolyticus MDR; test: MIC, broth microdilution (CLSI); type: cell-based; conditions: Staphylococcus haemolyticus
Method: as §1, §2, §3

[12] = tested on: L1577 S. epidermidis; test: MIC, broth microdilution (CLSI); type: cell-based; conditions: Staphylococcus epidermidis
Method: as §1, §2, §3

[13] = tested on: L559 E. faecalis; test: MIC, broth microdilution (CLSI); type: cell-based; conditions: Enterococcus faecalis
Method: as §1, §2, §3

[14] = tested on: L44 S. pneumoniae; test: MIC, broth microdilution (CLSI); type: cell-based; conditions: Streptococcus pneumoniae
Method: as §1, §2, §3

[15] = tested on: L100 S. aureus ATCC 6538; test: MIC, broth microdilution (CLSI); type: cell-based; conditions: Staphylococcus aureus, ATCC6538
Method: as §1, §2, §3

[16] = tested on: L3294 M. catarrhalis; test: MIC, broth microdilution (CLSI); type: cell-based; conditions: Moraxella catarrhalis
Method: as §1, §2, §3

[17] = tested on: L3030 A. baumannii; test: MIC, broth microdilution (CLSI); type: cell-based; conditions: Acinetobacter baumannii
Method: as §1, §2, §3

[18] = tested on: L145 C. albicans; test: MIC, broth microdilution (CLSI); type: cell-based, Candida albicans
Method: as §4, §5, §6

[19] = +30% SB (bovine serum), read-out: MIC
[20] = ATCC19636, L819 S. aureus Smith ATCC19636, CAMHB, read-out: MIC
[21] = ATCC19636, L819 S. aureus Smith, +30% SB (bovine serum), read-out: MIC
[22] = L2048 B. cenocepacia, read-out: MIC
[23] = L568 E. faecium, CAMHB, read-out: MIC
[24] = L49 S. pyogenes C203, THB, read-out: MIC
[25] = L1400 S. aureus MRSA, CAMHB, read-out: MIC
[26] = L47 E. coli, SKF 12140, CAMHB, read-out: MIC
[27] = L1730 S. haemolyticus, CAMHB, read-out: MIC
[28] = L1729 S. haemolyticus MDR, CAMHB, read-out: MIC
[29] = L1577 S. epidermidis, CAMHB, read-out: MIC
[30] = L559 E. faecalis, CAMHB, read-out: MIC
[31] = L44 S. pneumoniae, THB, read-out: MIC
[32] = L100 S. aureus ATCC 6538, CAMHB, read-out: MIC
[33] = L3294 M. catarrhalis, CAMHB, read-out: MIC
[34] = L3030 A. baumannii, read-out: MIC
[35] = Candida albicans, L145 C. albicans, RPMI, inoculum 10^4 CFU/mL, read-out: MIC

Structure (SMILES)	antibacterial activity (in words) [5]	MIC [1, 19] [µg/mL]	MIC ([1]; CAMHB, read-out: MIC) [µg/mL]	MIC [2, 19] [µg/mL]	MIC ([2]; CAMHB, read-out: MIC) [µg/mL]	MIC [3, 20] [µg/mL]	MIC [3, 21] [µg/mL]	MIC [4, 22] [µg/mL]	MIC [6, 23] [µg/mL]	MIC [7, 24] [µg/mL]	MIC [8, 25] [µg/mL]	MIC [9, 26] [µg/mL]	MIC [10, 27] [µg/mL]	MIC [11, 28] [µg/mL]	MIC [12, 29] [µg/mL]	MIC [13, 30] [µg/mL]	MIC [14, 31] [µg/mL]	MIC [15, 32] [µg/mL]	MIC [16, 33] [µg/mL]	MIC [17, 34] [µg/mL]	other results
COC(=O)c1c(C)cc2c(c1O)C1(O)C(=O)c3cc4c(c(O)c3C(=O)C1(OC)[C@H](O)C2)C(=O)C=C(NC1O[C@@H](C)[C@H](OC2C=CC(=O)C(C)O2)[C@@H](O)[C@H]1OC)C4=O (stereo partly drawn) [F793, (6R,6aS,14aR)-methyl 11-[(2S,3R,4R,5R,6S)-4-hydroxy-3-methoxy-6-methyl-5-{[(2S,6S)-6-methyl-5-oxo-5,6-dihydro-2H-pyran-2-yl]oxy}tetrahydro-2H-pyran-2-ylamino]-1,6,8,14a-tetrahydroxy-6a-methoxy-3-methyl-7,9,12,14-tetraoxo-5,6,6a,7,9,12,14,14a-octahydrobenzo[α]tetracene-2-carboxylate]	very high antibacterial activity	–	–	–	–	–	–	–	–	–	–	–	–	–	–	–	–	–	–	–	MIC ([1]; +30% SB (bovine serum)): 2 µg/mL (≈ 2.52 µM); MIC ([1]; CAMHB): 0.5 µg/mL (≈ 0.63 µM); MIC ([2]; +30% SB (bovine serum)): 16 µg/mL (≈ 20.2 µM); MIC ([2]; CAMHB): 1 µg/mL (≈ 1.26 µM); MIC ([3]; ATCC19636, L819 S. aureus Smith ATCC19636, CAMHB): 0.5 µg/mL (≈ 0.63 µM); MIC ([3]; ATCC19636, L819 S. aureus Smith, +30% SB (bovine serum)): 4 µg/mL (≈ 5.04 µM); MIC [4]: 128 µg/mL (≈ 161 µM); MIC [6]: 1 µg/mL (≈ 1.26 µM); MIC [7]: 0.03 µg/mL (≈ 0.0378 µM); MIC ([8]; MRSA): 0.5 µg/mL (≈ 0.63 µM); MIC [9]: > 128 µg/mL; MIC [10]: 1 µg/mL (≈ 1.26 µM); MIC [11]: 1 µg/mL (≈ 1.26 µM); MIC [12]: 0.25 µg/mL (≈ 0.315 µM); MIC [13]: 0.5 µg/mL (≈ 0.63 µM); MIC [14]: 0.06 µg/mL (≈ 0.0756 µM); MIC [15]: 1 µg/mL (≈ 1.26 µM); MIC [16]: 1 µg/mL (≈ 1.26 µM); MIC [17]: 128 µg/mL (≈ 161 µM); MIC ([18]; Candida albicans): > 128 µg/mL
COC(=O)c1c(C)cc2c(c1O)[C@]1(O)C(=O)c3cc4c(c(O)c3C(=O)[C@]1(OC)[C@H](O)C2)C(=O)C=C(NC1O[C@@H](C)[C@H](O)[C@@H](O)[C@H]1OC)C4=O (stereo partly drawn) [F683, 6R,6aS,14aR-methyl-11,6,8,14a-tetrahydroxy-11[(2S,3R,4R,5R,6S)-4,5-dihydroxy-3-methoxy-6-methyltetrahydro-2H-pyran-2-ylamino]-6a-methoxy-3-methyl-7,9,12,14-tetraoxo-5,6,6a,7,9,12,14,14a-octahydrobenzo[α]tetracene-2-carboxylate]	very high antibacterial activity	32 (≈ 46.8 µM)	8 (≈ 11.7 µM)	> 32	16 (≈ 23.4 µM)	0.5 (≈ 0.731 µM)	8 (≈ 11.7 µM)	> 128	16 (≈ 23.4 µM)	0.125 (≈ 0.183 µM)	0.5 (≈ 0.731 µM)	> 128	0.5 (≈ 0.731 µM)	0.5 (≈ 0.731 µM)	0.5 (≈ 0.731 µM)	8 (≈ 11.7 µM)	0.125 (≈ 0.183 µM)	2 (≈ 2.93 µM)	0.5 (≈ 0.731 µM)	> 128	MIC [18, 35]: > 128 µg/mL
C[C@@H]1[C@H](O)[C@@H](C)/C=C/C=C/C=C/C=C/C=C/C=C/C=C/[C@H](O[C@@H]2O[C@H](C)[C@@H](O)[C@H](N)[C@@H]2O)C[C@@H]2O[C@](O)(C[C@@H](O)C[C@@H](O)[C@H](O)CC[C@@H](O)C[C@@H](O)CC(=O)O[C@H]1C)C[C@H](O)[C@H]2C(=O)O [AmB, Amphotericin B, reference compound]	–	–	–	–	–	–	–	–	–	–	–	–	–	–	–	–	–	–	–	–	MIC ([18]; L145 C. albicans, RPMI, inoculum 10^4 CFU/mL): 1 µg/mL (≈ 1.08 µM)
COC(=O)c1c(C)cc2c(c1O)[C@]1(O)C(=O)c3cc4c(c(O)c3C(=O)[C@]1(OC)[C@H](O)C2)C(=O)C=C(NC1O[C@@H](C)[C@H](OC2C[C@H](O)[C@H](O)C(C)O2)[C@@H](O)[C@H]1OC)C4=O (stereo partly drawn) [F813, (6R,6aS,14aR)-methyl 11-[(2S,3R,4R,5R,6S)-5-{[(2R,5S,6S)-4,5-dihydroxy-6-methyltetrahydro-2H-pyran-2-yl]oxy}-4-hydroxy-3-methoxy-6-methyltetrahydro-2H-pyran-2-ylamino]-1,6,8,14a-tetrahydroxy-6a-methoxy-3-methyl-7,9,12,14-tetraoxo-5,6,6a,7,9,12,14,14a-octahydrobenzo[α]tetracene-2-carboxylate]	very high antibacterial activity	16 (≈ 19.7 µM)	4 (≈ 4.92 µM)	16 (≈ 19.7 µM)	4 (≈ 4.92 µM)	0.125 (≈ 0.154 µM)	1 (≈ 1.23 µM)	64 (≈ 78.6 µM)	4 (≈ 4.92 µM)	0 to 125	0.5 (≈ 0.614 µM)	128 (≈ 157 µM)	0.5 (≈ 0.614 µM)	0.5 (≈ 0.614 µM)	0.5 (≈ 0.614 µM)	4 (≈ 4.92 µM)	0.125 (≈ 0.154 µM)	0.125 (≈ 0.154 µM)	0.5 (≈ 0.614 µM)	128 (≈ 157 µM)	MIC [18, 35]: > 128 µg/mL
